{
  "source": "paper PMC6479817",
  "about": "“In Vitro and In Situ Characterization of the Intestinal Absorption of Capilliposide B and Capilliposide C from Lysimachia capillipes Hemsl” (Molecules, 2019)",
  "key": {"[1]": {"system": "intestinal segment (duodenum, jejunum, ileum)", "format": "in vivo", "settings": "rat; for change of Peff and Ka values at higher drug concentration (80 μg/mL) / change of Peff and Ka values between 20 and 50 μg/mL / increase of Peff with indomethacin / increase of intestinal transport with verapamil / order of Peff and Ka values in three intestinal segments: in vivo", "protocol": "Male Sprague-Dawley (SD) rats (280 ± 30 g) were supplied by the Laboratory Animal Center, Zhejiang Chinese Medical University (Zhejiang, China). All animals were fasted overnight (12-18 h) with free access to water before experiments. All experiments were performed in accordance with the guidelines for the care and use of animals as established by the Laboratory Animal Centre, Zhejiang Chinese Medical University (Zhejiang, China) (approval number: ACXK20150016). The perfusion experiment was performed as previously reported. In brief, rats were fasted overnight but permitted to drink water freely the day before the experiments. After being anesthetized, the rats were placed on the surface of a thermostatic device and maintained at 37 °C. An incision of approximately 3 cm was made along the midline of the abdominal cavity to expose the contents of the abdomen. […] Then the incision was made at both sides of the segment. The intestinal contents were rinsed with saline preheated at 37 °C, drained with air, and connected to the perfusion system with the catheter. One-hundred […] of pre-prepared perfusate was taken and preheated at 37 °C. The perfusion was started at a circulation speed of 1.0 mL/min for 10 min. […] Samples were collected in glass tubes (2 mL/per) at 10-min intervals for 90 min. […] The rest of the samples were stored at -20 °C for further studies."}, "[2]": {"test": "Stability in Krebsringer buffer (K-R buffer) at different pH values", "format": "physicochemical", "settings": "pH 5.0, pH 6.55, pH 7.43", "excerpt": "The SPIP model was used to further explore the intestinal permeability features of CAPB and CAPC in rats. Firstly, we determined the stability of CAPB and CAPC in the Krebsringer buffer (K-R buffer) across different pH values. […] In other words, CAPB and CAPC were stable in a weakly acidic environment. Because the pH of intestinal juice was close to 6.55, we used a K-R buffer at pH 6.55 as the perfusion solution.\nFigure 4 The characterization of the intestinal permeability of capilliposide B (CAPB) and capilliposide C (CAPC) in single-pass intestinal perfusion (SPIP) model. The stability of CAPB and CAPC were measured at different pH values (pH 5, pH 6.55, and pH 7.34, respectively) (A). The absorption rate constants (ka, s^−1) values (B) and effective permeability (Peff, cm/s) values (C) for CAPB and CAPC at different initial drug concentrations (20 μg/mL, 50 μg/mL, and 80 μg/mL, respectively). p < 0.05 (*) compared with the group at 80 μg/mL. The Ka values (D) and Peff values (E) of CAPB and CAPC obtained from the duodenum, jejunum, and ileum in SPIP models. p < 0.05 (*) compared with the duodenum. All the results are expressed as mean ± S.D. (n = 3)."}, "caco-2 cell monolayer": {"system": "caco-2 cell monolayer", "test": "Transport (permeability) across caco-2 cell monolayer, bidirectional, with and without inhibitors", "format": "in vitro ADME, human", "protocol": "Caco-2 cells were routinely cultured in high glucose Dulbecco’s modified Eagle’s medium (DMEM) containing 10% fetal bovine serum (FBS), 1% nonessential amino acids, and 1% penicillin/streptomycin. Cells were kept at 37 °C in a 90% relative humidity atmosphere containing 5% CO2. Cells were seeded onto transwells purchased from Corning Costar Co. (New York, NY, USA) on 12-well plates for transport studies and uptake studies at 5 × 10^4 cells per insert. Cells were grown for 20 days. […] DMEM was removed and the monolayer was washed with Hank’s Balanced Salt Solution (HBSS). The blank HBSS was replaced by 0.4 mL of HBSS containing 40, 20 and 10 μg/mL of drug on the apical (AP) side and 2.1 mL of HBSS on the basolateral (BL) side. In the AP-BL direction studies, 0.4 mL of HBSS containing 40 μg/mL drug and P-gp inhibitor (53 μg/mL verapamil); MRP2 inhibitor (17.9 μg/mL indomethacin); or the co-inhibitor of P-gp, MRP2 and CYP3A4 (10 μg/mL cyclosporin A) were added to the AP side; 2.1 mL of HBSS was added to the BL side. In the BL-AP direction studies, 0.4 mL of HBSS containing 40 μg/mL drug and different inhibitors were added to the BL side, and 2.1 mL of HBSS was added to AP side. Samples (0.4 mL) were taken from the BL or AP side after 45, 60 and 90 min incubation at 37 °C. An additional 0.4 mL of HBSS was added at the same time. The concentrations of samples were analyzed by LC-MS. […] Linear regression was carried out to obtain the steady-state appearance rate of the drug on the receiver side."}, "[3]": {"set-up": "method as in PMID 24313264", "settings": "cited from earlier work"}, "caco-2 cells": {"system": "caco-2 cells", "test": "MTT colorimetric assay of caco-2 cell viability", "format": "cell-based, human", "settings": "24 h; for effect on cell growth (MTT): concentration less than 40 μg/mL; for effect on cell viability (MTT): concentration over 40 μg/mL", "protocol": "The effects of CAPs on caco-2 cell viability were checked by 3-(4,5-dimethyl-2-thiazolyl)-2,5-diphenyl-2-H-tetrazolium bromide (MTT) colorimetric assay, which is adapted to analyze cell proliferation and drug cytotoxicity. […] In brief, caco-2 cells were seeded at 4 × 10^3 cells/well into 96-well culture plates and were incubated at 37 °C for 24 h before the assay. The cells were treated with different concentrations (0, 10, 20, 40, 80, 120, 160 and 240 μg/mL) of CAPs. After 24 h of incubation, 20 µL of MTT (5 mg/mL) was added to each well and the cells were incubated for another 4 h. After removing the culture medium, 100 µL of dimethyl sulfoxide was added to dissolve the contents in the plate. Then, the absorbance was measured at 570 and 630 nm (reference wavelength) using a microplate reader (Multiskan MK3; Thermo Fisher Scientific, Waltham, MA, USA).\nFigure S2: Capilliposides (CAPs) inhibited the proliferation of caco-2 cells. Caco-2 cells were treated for 24 h with different concentrations (0, 10, 20, 40, 80, 120, 160 and 240 ug/mL) of CAPs. p < 0.05(*), comparison with the group of 0 ug/mL. All the results are expressed as mean ± S.D. (n=3)."}},
  "data": [
    {"smiles": "CCCCCC(=O)O[C@H]1CC(C)(C)C[C@@H]2[C@@]13[C@H](O)C[C@]1(C)[C@@]2(CC[C@@H]2[C@@]4(C)CC[C@H](O[C@@H]5OC[C@H](O[C@@H]6O[C@H](CO)[C@@H](O)[C@H](O)[C@H]6O[C@@H]6OC[C@@H](O)[C@H](O)[C@H]6O)[C@H](O)[C@H]5O[C@@H]5O[C@H](CO)[C@@H](O)[C@H](O)[C@H]5O)C(C)(C)[C@@H]4CC[C@]21C)O[C@H]3O", "note": "[CAPB, capilliposide B]", "values": [
      {"measurement": "change of permeability with cyclosporin A", "setting": "[1]", "value": "increased around two-fold"},
      {"measurement": "change of permeability with ketoconazole vs alone", "setting": "[1]", "value": "two-fold higher permeability"},
      {"measurement": "effective permeability (Peff)", "setting": "[1]", "value": "less than 0.2 × 10^−4 cm/s"},
      {"measurement": "change of Peff and Ka values at higher drug concentration (80 μg/mL)", "setting": "[1]", "value": "significant increase"},
      {"measurement": "change of Peff and Ka values between 20 and 50 μg/mL", "setting": "[1]", "value": "slight decline"},
      {"measurement": "increase of Peff with indomethacin", "setting": "[1]", "value": 4.2, "unit": "fold"},
      {"measurement": "increase of intestinal transport with verapamil", "setting": "[1]", "value": 1.5, "unit": "fold"},
      {"measurement": "order of Peff and Ka values in three intestinal segments", "setting": "[1]", "value": "duodenum > jejunum > ileum"},
      {"measurement": "stability in K-R buffer across pH values", "setting": "[2]", "value": "more stable at pH 5.0 and pH 6.55 than pH 7.43"},
      {"measurement": "Papp", "setting": "caco-2 cell monolayer", "value": "less than 2 × 10^−6 cm/s"},
      {"measurement": "Papp (BA)/Papp (AB) (efflux ratio, ER)", "setting": "caco-2 cell monolayer", "value": "1.0-1.5"},
      {"measurement": "Papp at high and medium vs lower concentration", "setting": "caco-2 cell monolayer", "value": "significant increase in permeability"},
      {"measurement": "Papp over incubation time", "setting": "caco-2 cell monolayer", "value": "upward trend over time"},
      {"measurement": "change of permeability in the presence of cyclosporin A", "setting": "caco-2 cell monolayer", "value": 10, "unit": "fold"},
      {"measurement": "bioavailability and tissue exposure after oral administration", "setting": "[3]", "value": "poor bioavailability and low exposure in tissues"},
      {"measurement": "effect on cell growth (MTT)", "setting": "caco-2 cells", "value": "did not inhibit cell growth significantly"},
      {"measurement": "effect on cell viability (MTT)", "setting": "caco-2 cells", "value": "significantly decreased cell viability"}
    ]},
    {"smiles": "CC1(C)C[C@H](O[C@@H]2O[C@H](CO)[C@@H](O)[C@H](O)[C@H]2O)[C@@]23[C@H](O)C[C@]4(C)[C@@](CC[C@@H]5[C@@]6(C)CC[C@H](O[C@@H]7OC[C@H](O[C@@H]8O[C@H](CO)[C@@H](O)[C@H](O)[C@H]8O[C@@H]8OC[C@@H](O)[C@H](O)[C@H]8O)[C@H](O)[C@H]7O[C@@H]7O[C@H](CO)[C@@H](O)[C@H](O)[C@H]7O)C(C)(C)[C@@H]6CC[C@]54C)(O[C@@H]2O)[C@@H]3C1", "note": "[CAPC, capilliposide C]", "values": [
      {"measurement": "change of permeability with cyclosporin A", "setting": "[1]", "value": "increased slightly"},
      {"measurement": "change of permeability with ketoconazole vs alone", "setting": "[1]", "value": "minimal alteration of permeability"},
      {"measurement": "effective permeability (Peff)", "setting": "[1]", "value": "less than 0.2 × 10^−4 cm/s"},
      {"measurement": "change of Peff and Ka values at higher drug concentration (80 μg/mL)", "setting": "[1]", "value": "significant decrease"},
      {"measurement": "change of Peff and Ka values between 20 and 50 μg/mL", "setting": "[1]", "value": "slight increase"},
      {"measurement": "increase of Peff with indomethacin", "setting": "[1]", "value": 2, "unit": "fold"},
      {"measurement": "increase of intestinal transport with verapamil", "setting": "[1]", "value": 1.5, "unit": "fold"},
      {"measurement": "order of Peff and Ka values in three intestinal segments", "setting": "[1]", "value": "followed the same pattern as CAPB"},
      {"measurement": "stability in K-R buffer across pH values", "setting": "[2]", "value": "more stable at pH 5.0 and pH 6.55 than pH 7.43"},
      {"measurement": "Papp", "setting": "caco-2 cell monolayer", "value": "less than 2 × 10^−6 cm/s"},
      {"measurement": "Papp (BA)/Papp (AB) (efflux ratio, ER)", "setting": "caco-2 cell monolayer", "value": "1.0-1.5"},
      {"measurement": "Papp at high and medium vs lower concentration", "setting": "caco-2 cell monolayer", "value": "significant increase in permeability"},
      {"measurement": "Papp over incubation time", "setting": "caco-2 cell monolayer", "value": "upward trend over time"},
      {"measurement": "change of permeability in the presence of cyclosporin A", "setting": "caco-2 cell monolayer", "value": "only a small increase"},
      {"measurement": "bioavailability and tissue exposure after oral administration", "setting": "[3]", "value": "poor bioavailability and low exposure in tissues"},
      {"measurement": "effect on cell growth (MTT)", "setting": "caco-2 cells", "value": "did not inhibit cell growth significantly"},
      {"measurement": "effect on cell viability (MTT)", "setting": "caco-2 cells", "value": "significantly decreased cell viability"}
    ]}
  ]
}
